Results taken from patent publication EP4631940A1, “COMPOUND TARGETING PAN-KRAS PROTEIN DEGRADATION AGENT AND USE THEREOF” (Betta Pharmaceuticals Co., Ltd., priority 2022, dated 2024).

Experiments:
KRAS G12D [1] = molecular target: T1, KRAS G12D (Homo sapiens, UniProt P01116, G12D)
in vitro [2] = conditions: dog, microsomes
AGS = test: Cell proliferation experiment (CellTiter-Glo); format: cell-based; conditions: Homo sapiens, AGS, 96 h, read-out: IC50(nM) AGS
in vitro [3] = conditions: mouse, microsomes
SW620 = test: Cell proliferation experiment (CellTiter-Glo); format: cell-based; conditions: Homo sapiens, SW-620, 96 h, read-out: IC50(nM) SW620
in vitro [4] = conditions: rat, microsomes
[5] = Phase II metabolic stability in liver microsomes (UDPGA); format: in vitro ADME; conditions: 0.5 mg/mL liver microsomes, Alamethicin
Protocol: (§1) Example 6 Study on Phase II Metabolic Stability of Compounds in Human, Rat, Mouse, and Dog Liver Microsomes
(§2) Experimental Method: A diluted solution containing 0.5 mg/mL liver microsomes with K-buffer and MgCl2 was prepared: Table 8
(§3) 358 µL of the diluted liver microsome solution prepared in Table 8 above was added to the pre-set wells of the incubation plate, labeled as the incubation plate. 2 µL of compound working solution (400 µM) (final concentration of DMSO ≤ 0.5%) was added. The incubation plate was placed in a 37°C constant temperature shaker and pre-incubated for 5-10 min. Then, 40 µL of UDPGA (20 mM) was added to the incubation plate to initiate the reaction, and timing started. At each predetermined time point (0, 5, 15, 60 min), 50 µL of samples were taken from the incubation plate and added to the precipitation plate containing 200 µL of internal standard. Samples were mixed thoroughly, centrifuged at 4°C and 5000 rpm for 10 minutes. The supernatant after centrifugation was added to pre-added ultrapure water at an appropriate ratio, mixed thoroughly on a shaker at room temperature, and subjected to LC-MS/MS analysis.
(§4) Data processing: The peak areas of the analyte and the internal standard in samples were measured at different time points. The peak area ratio of the analyte to the internal standard at non-zero time points compared to the peak area ratio of the analyte to the internal standard in the 0 min sample was used to calculate the remaining percentage of the parent drug.

in vitro [6] = conditions: human, microsomes
KRAS G12D [7] = molecular target: T1, KRAS G12D; test: cell-based; conditions: AGS
[8] = Phase II metabolic stability in liver microsomes (UDPGA); format: in vitro ADME, Human; conditions: for 60 minutes remaining percentage % Human: 0.5 mg/mL liver microsomes, Alamethicin; for metabolism by UGT in human liver microsomes: 60 min
Protocol: as §1, §2, §3, §4

[9] = Metabolic stability in liver microsomes (NADPH); conditions: dog, liver microsomes
[10] = Metabolic stability in liver microsomes (NADPH); conditions: rat, liver microsomes
[11] = Metabolic stability in liver microsomes (NADPH); conditions: mouse, liver microsomes
[12] = Metabolic stability in liver microsomes (NADPH); conditions: human, liver microsomes
H358 = test: Cell proliferation experiment (CellTiter-Glo); format: cell-based; conditions: Homo sapiens, NCI-H358; H358, KRAS mutation type G12C; 96 h incubation
[13] = PK study in ICR mice (whole blood); format: in vivo; conditions: Female ICR mice, IV 1 mg/kg
Protocol: Example 8 PK Study of Compound in ICR Mice (whole blood)
The compound was mixed with the vehicle (10% DMSO / 5% Solutol HS 15 / 85% saline), vortexed, and sonicated to prepare a clear solution at 0.2 mg/mL. Female ICR mice aged 6 to 7 weeks (non-fasted) were intravenously administered the compound. Whole blood was collected at specified time points. Drug concentration was analyzed by LC-MS/MS, and pharmacokinetic parameters were calculated using Phoenix WinNonlin software (Pharsight Corporation, USA). Table 11 Mouse PK Data for Intravenous Compound Monotherapy

T1 sequence (P01116 1-188 isoform P01116-2 G12D): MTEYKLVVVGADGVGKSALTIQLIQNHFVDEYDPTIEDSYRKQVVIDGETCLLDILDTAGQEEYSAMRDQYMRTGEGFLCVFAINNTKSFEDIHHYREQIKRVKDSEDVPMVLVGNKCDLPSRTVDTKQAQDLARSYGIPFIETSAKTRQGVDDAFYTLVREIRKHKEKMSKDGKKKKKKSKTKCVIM

Compound | DC50 (KRAS G12D [1]) | microsomal CLint (in vitro [2]) | IC50 (AGS) | microsomal CLint (in vitro [3]) | IC50 (SW620) | microsomal CLint (in vitro [4]) | 60 minutes remaining percentage % Dog [5] | 60 minutes remaining percentage % Mouse [5] | 60 minutes remaining percentage % Rat [5] | microsomal CLint (in vitro [6]) | Dmax (KRAS G12D [7]) | 60 minutes remaining percentage % Human [8] | IC50 (H358) | metabolism by UGT in human liver microsomes [8] | also measured
C=C1CN2[C@H](COCc3ccc(-c4cn([C@H](C(=O)N5C[C@H](O)C[C@H]5C(=O)N[C@@H](C)c5ccc(-c6scnc6C)cc5)C(C)C)nn4)cc3)CC[C@@]2(COc2nc(N3CCC[C@@](C)(O)C3)c3cnc(-c4cc(O)cc5ccc(F)c(CC)c45)c(F)c3n2)C1 [Compound 122] | 22 nM | 53 µL/min/mg | 28 nM | 24.8 µL/min/mg | 87 nM | 8.5 µL/min/mg | 99.4% | 105% | 96.5% | 46.4 µL/min/mg | 95% | 76.9% | – | – | –
C=C1CN2[C@H](COC(=O)N3CCC(Cc4cn([C@H](C(=O)N5C[C@H](O)C[C@H]5C(=O)N[C@@H](C)c5ccc(-c6scnc6C)cc5)C(C)C)nn4)CC3)CC[C@@]2(COc2nc(N3CCC[C@@](C)(O)C3)c3cnc(-c4cc(O)cc5ccc(F)c(CC)c45)c(F)c3n2)C1 [Compound 141, ((3S,7aS)-7a-(((7-(8-ethyl-7-fluoro-3-hydroxynaphthalen-1-yl)-8-fluoro-4-((R)-3-hydroxy-3-methylpiperidin-1-yl)pyrido[4,3-d]pyrimidin-2-yl)oxy)methyl)-6-methylenehexahydro-1H-pyrrolizin-3-yl)methyl 4-((1-((S)-1-((2S,4R)-4-hydroxy-2-(((S)-1-(4-(4-methylthiazol-5-yl)phenyl)ethyl)carbamoyl)pyrrolidin-1-yl)-3-methyl-1-oxobutan-2-yl)-1H-1,2,3-triazol-4-yl)methyl)piperidine-1-carboxylate] | – | – | 31 nM | – | 250 nM | – | – | – | – | – | – | – | – | – | microsomal CLint at 1 µM [9]: 12.9 µL/min/mg; microsomal CLint at 1 µM [10]: 3.9 µL/min/mg; microsomal CLint at 1 µM [11]: 12.1 µL/min/mg; microsomal CLint at 1 µM [12]: 21.2 µL/min/mg
CCc1c(F)ccc2cc(O)cc(-c3ncc4c(N5CCC[C@@](C)(O)C5)nc(OCC5(CN6CCC(COc7ccc(-c8cn([C@H](C(=O)N9C[C@H](O)C[C@H]9C(=O)N[C@@H](C)c9ccc(-c%10scnc%10C)cc9)C(C)C)nn8)cc7)CC6)CC5)nc4c3F)c12 [Compound 69] | 25 nM | 16.4 µL/min/mg | 14 nM | 7.9 µL/min/mg | 34 nM | 4.6 µL/min/mg | 90.6% | 92% | 99% | 9.8 µL/min/mg | 95% | 98.4% | 42 nM | not metabolized or are minimally metabolized | –
CCc1c(F)ccc2cc(O)cc(-c3ncc4c(N5CCC[C@@](C)(O)C5)nc(OCC5(CN6CCC7(CC6)CC(c6cn([C@H](C(=O)N8C[C@H](O)C[C@H]8C(=O)N[C@@H](C)c8ccc(-c9scnc9C)cc8)C(C)C)nn6)C7)CC5)nc4c3F)c12 [Compound 71] | 20 nM | 6.5 µL/min/mg | 18 nM | 9.8 µL/min/mg | 85 nM | 1.1 µL/min/mg | 108% | 93% | 75.4% | 5.9 µL/min/mg | 95% | 94.6% | 39 nM | not metabolized or are minimally metabolized | Cl_obs [13]: 16.3 mL/min/kg; Vss_obs [13]: 1.45 L/kg; AUC(0-t) ([13]; mouse): 1030 ng·h/mL; half-life ([13]; mouse): 6.08 h; C0 ([13]; mouse, read-out: C0): 5560 ng/mL
